Like-named read-outs stand apart in the source and are kept apart here.
Key:
[1] = Stability in rat plasma under storage conditions; format: physicochemical
Procedure: In addition, the stabilities of cinobufotalin at 20, 200, and 2000 ng/mL in different storage conditions were evaluated, including short term stability (such as 25°C for 4, 8, 12, and 24 h and 4°C for 4, 8, 12, and 24 h), long term stability (-80°C for 10 days) and three freeze-thaw cycles in rat plasma. Stabilities were expressed as the concentrations after different operations to the concentration at time zero. All of the samples were processed as described in Preparation of rat plasma samples section. A 5 μL aliquot was injected to UPLC-QTOF/MS for analyses.

[2] = molecular target: T1, P-glycoprotein (P-gp) (Homo sapiens, UniProt P08183); test: Cellular uptake (intracellular accumulation) in MDCK-MDR1 cells; format: in vitro ADME; conditions: 2 h; for increase of intracellular accumulation of cinobufotalin by verapamil: MDCK-MDR1 cells, verapamil 100 μM
T1 construct: expressed in transfected cells; host or cells: MDCK II (Madin Darby canine kidney) cells stably transfected with the MDR1 gene
T1 sequence (P08183 whole entry): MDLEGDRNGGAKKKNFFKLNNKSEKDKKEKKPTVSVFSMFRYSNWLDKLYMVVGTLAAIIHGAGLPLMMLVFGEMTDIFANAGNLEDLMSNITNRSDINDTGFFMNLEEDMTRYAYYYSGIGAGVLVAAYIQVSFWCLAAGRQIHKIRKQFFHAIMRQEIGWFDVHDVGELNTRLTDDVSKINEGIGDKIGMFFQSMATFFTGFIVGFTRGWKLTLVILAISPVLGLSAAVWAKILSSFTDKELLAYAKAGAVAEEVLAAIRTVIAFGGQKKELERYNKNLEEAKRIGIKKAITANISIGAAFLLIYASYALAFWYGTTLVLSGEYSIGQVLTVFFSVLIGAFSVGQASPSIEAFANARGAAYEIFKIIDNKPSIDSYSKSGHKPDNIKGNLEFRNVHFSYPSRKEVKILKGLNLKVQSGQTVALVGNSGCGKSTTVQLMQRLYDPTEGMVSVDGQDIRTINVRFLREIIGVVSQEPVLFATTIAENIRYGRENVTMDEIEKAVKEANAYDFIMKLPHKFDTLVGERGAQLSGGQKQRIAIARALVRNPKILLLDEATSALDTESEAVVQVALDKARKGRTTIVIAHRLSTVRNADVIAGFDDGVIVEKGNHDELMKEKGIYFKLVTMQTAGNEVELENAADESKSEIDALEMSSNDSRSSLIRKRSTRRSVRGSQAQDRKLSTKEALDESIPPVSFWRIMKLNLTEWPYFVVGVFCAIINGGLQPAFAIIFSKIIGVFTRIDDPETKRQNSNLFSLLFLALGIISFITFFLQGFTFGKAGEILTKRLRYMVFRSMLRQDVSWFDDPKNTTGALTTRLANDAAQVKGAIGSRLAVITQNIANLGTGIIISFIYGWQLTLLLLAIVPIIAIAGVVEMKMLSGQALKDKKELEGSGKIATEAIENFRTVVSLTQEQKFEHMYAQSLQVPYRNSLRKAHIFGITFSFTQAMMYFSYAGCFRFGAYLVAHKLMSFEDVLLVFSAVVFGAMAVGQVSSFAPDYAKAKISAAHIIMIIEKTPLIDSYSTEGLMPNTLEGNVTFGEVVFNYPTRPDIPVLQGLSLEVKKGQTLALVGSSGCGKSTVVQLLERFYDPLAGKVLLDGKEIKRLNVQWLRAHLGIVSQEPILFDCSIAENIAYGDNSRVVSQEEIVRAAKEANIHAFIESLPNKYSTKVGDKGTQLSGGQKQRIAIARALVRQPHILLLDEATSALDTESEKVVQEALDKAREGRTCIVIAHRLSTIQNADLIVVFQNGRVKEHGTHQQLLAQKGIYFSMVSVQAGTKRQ
Procedure: Madin Darby canine kidney (MDCK II) cells stably transfected with multidrug resistance 1 gene (MDCK-MDR1 cells) were conducted and used in cinobufotalin uptake studies. Wild type MDCK II or MDCK-MDR1 cells were seeded into six-well plates at the destiny of 2 × 10^5 cells/well and maintained at 37°C under 5% CO2 in DMEM with 10% FBS. The well-known P-gp inhibitor, verapamil (100 μM), was used as the positive control to evaluate the effect of P-gp on cinobufotalin uptake ([Bicker et al., 2017]).
The uptake experiment was performed when the cells reached 100% confluency. First, cells were washed three times using 37°C Hanks’ balanced salt solution (HBSS) buffer (pH = 7.2). Then, 2 mL HBSS (37°C, pH = 7.2) buffer containing cinobufotalin (5 and 20 μM) were added and incubated with cells in the absence or presence of potential P-gp inhibitors, verapamil (100 μM). After incubation for 2 h, the incubation medium was removed, and cells were washed three times using ice-cold HBSS buffer. Then 400 μL of ice-cold MeOH:H2O (1:1, v/v) were added into each well, the cells were collected and sonicated for 15 min in ice-cold water. The mixture was centrifuged at 4°C (12,000 g, 10 min), and the supernatant was subjected to UPLC-QTOF/MS for analyses.

[3] = molecular target: T1, P-glycoprotein (P-gp); test: Bidirectional transport across MDCK-MDR1 cell monolayers; format: in vitro ADME; conditions: for Net flux ratio: ER MDCK-MDR1 / ER MDCK II, cinobufotalin 20 μM; for Papp A→B at 120 min, 20 μM / Papp B→A at 120 min, 20 μM / efflux ratio at 120 min, 20 μM: dog, MDCK-MDR1, cinobufotalin 20 μM; for efflux ratio at 120 min, 20 μM: read-out: ER
Procedure: MDCK II and MDCK-MDR1 cells were seeded into 12-well Transwell polycarbonate membrane inserts (12 mm diameter inserts, 0.4 μm pore size, Corning Costar) at a density of 6 × 10^5 cells/well. Cells were cultured at 37°C under 5% CO2 in DMEM with 10% FBS, and the culture medium was refreshed every other day. Experiments were conducted when the tight junctional cell monolayer formed. First, the cells were washed three times using 37°C preheated HBSS buffer (pH = 7.4) and preincubated in a shaking incubator for 30 min at 37°C. Then the transport studies were initiated after the blank HBSS buffer and dosing solution (HBSS buffer containing cinobufotalin at a final concentration of 20 μM) were added to the receiver compartment and donor compartment, respectively. Verapamil, if used, was added to both compartment during the incubated period. The volumes of the apical side (AP) and basolateral side (BL) were 0.5 and 1.5 mL, respectively. Samples (100 μL) were taken from the receiver compartment every 30 min during the incubation period of 120 min, and then replaced with the same volume of […]. At the end of the incubated period, aliquots of 100 μL were withdrawn from the donor compartment to calculated mass balance. All samples were mixed with 50 μL acetonitrile and centrifuged at 4°C (12,000 g, 10 min. The supernatant was subjected to UPLC-QTOF/MS for analyses.
The apparent permeability (cm/s) from apical-to-basal (Papp,AP-BL) and basal-to-apical (Papp,BL-AP) were calculated according to the following Equation (4), where dQ/dt is the rate of drug permeation (nmol/s), A is the area of polycarbonate membrane (A = 1.12 cm^2), and C0 is the initial concentration of cinobufotalin in the donor compartment.
The efflux ratio (ER) and net flux ratio were calculated according to Equations (5) and (6) as described in our previous research ([Sun et al., 2017]).
(5) ER=Papp, BL−AP/Papp, AP−BL
(6) Net flux ratio=ERMDCK−MDRI/ERMDCK II

[4] = test system: Huh-7 cells; test: Cell viability CCK-8 assay, Huh-7 cells; format: cell-based; conditions: Homo sapiens, 40 nM, 60 nM and 80 nM, 24 h, read-out: inhibition of Huh-7 cells growth (CCK-8)
Procedure: Hepatocellular cancer cells (HepG2 and Huh-7) were purchased from the cell bank of the Chinese Academy of Science (Shanghai, China). These cells were cultured in Dulbecco’s modified Eagle’s medium (DMEM) containing 10% fetal bovine serum (FBS), penicillin (100 units/mL) and streptomycin (100 units/mL) in a humidified atmosphere with 5% CO2 at 37 °C.
Furthermore, the effect of cinobufotalin at 40, 60, 80 nM on hepatocellular cancer cells (HepG2 and Huh-7 cells) viability was conducted using Cell Counting Kit - 8 (CCK-8) assay (Sigma-Aldrich, St Louis, MO). In brief, cells were seeded into 96-well plates at 5 × 10^3 cells/well and cultured for 24 h in DMEM medium as described in 1.1 section. Then various concentrations of cinobufotalin (40, 60, 80 nM) were added into cells. After 24 h treatment, 10 μL of CCK-8 solution was added into every well of the plate. The plate was incubated in the incubator for other 4 h, and then the absorbance was measured at 450 nm using a microplate reader (Thermo Scientific, Rockford, IL). The cell viability was calculated by the formula: cell viability (100%) = (OD value of the treated wells - OD value of the blank control wells) / (OD value of the negative control wells - OD value of the blank control wells).

[5] = test system: CYP3A4; design: method as in Han et al., 2016; conditions: especially mediated by CYP3A4; ref Han et al., 2016; cited from earlier work
[6] = design: method as in Bick et al., 2002; Bi et al., 2016; conditions: ref Bick et al., 2002, Bi et al., 2016; cited from earlier work
[7] = pH 7.4, with verapamil (concentration not stated), in both compartments, with verapamil

## CC(=O)O[C@H]1[C@H]2O[C@]23[C@@H]2CC[C@]4(O)C[C@@H](O)CC[C@]4(C)[C@H]2CC[C@]3(C)[C@H]1c1ccc(=O)oc1 [Cinobufotalin]
[1]; 20 ng/mL
  Stability in rat plasma, Freezing-thaw 3 cycles: 99.2 ± 0.8%
[1]; 200 ng/mL
  Stability in rat plasma, -80°C for 10 days: 100.9 ± 1.2%
  Stability in rat plasma, Freezing-thaw 3 cycles: 95.6 ± 1.6%
[1]; 2000 ng/mL
  Stability in rat plasma, -80°C for 10 days: 97.3 ± 5.6%
  Stability in rat plasma, Freezing-thaw 3 cycles: 99.2 ± 0.6%
[2]; 5 and 20 μM
  intracellular amount of cinobufotalin in MDCK II cells compared with MDCK-MDR1 cells: obviously higher
[2]; cinobufotalin 5 μM
  increase of intracellular accumulation of cinobufotalin by verapamil: 4.0 fold
[2]; cinobufotalin 20 μM
  increase of intracellular accumulation of cinobufotalin by verapamil: 3.5 fold
[3]
  Net flux ratio: 2.1
[3]; with verapamil
  Net flux ratio: 1.0
[3]; MDCK-MDR1 vs MDCK II, with verapamil
  decrease of net flux ratio when verapamil was used: 50.7%
[3]; [7]
  Papp A→B at 120 min, 20 μM: 32.1 ± 1.5 ×10⁻⁶ cm/s
  Papp B→A at 120 min, 20 μM: 34.5 ± 2.3 ×10⁻⁶ cm/s
  efflux ratio at 120 min, 20 μM: 1.1
[3]; pH 7.4
  Papp A→B at 120 min, 20 μM: 19.4 ± 1.3 ×10⁻⁶ cm/s
  Papp B→A at 120 min, 20 μM: 42.4 ± 1.5 ×10⁻⁶ cm/s
  efflux ratio at 120 min, 20 μM: 2.2
[3]; net flux ratio higher than 2 and reduction more than 50% with verapamil
  P-gp substrate identification: substrate of P-gp
[4]
  inhibition at 0.04 µM: < 15%
[5]
  metabolic pathways in human liver microsomes: undergo hydroxylation and dehydrogenation
[6]
  toxicity on over dose: cardiotoxicity and neurotoxicity

Reference: paper PMC6533572, “Elucidation of the Differences in Cinobufotalin’s Pharmacokinetics Between Normal and Diethylnitrosamine-Injured Rats: The Role of P-Glycoprotein” (Frontiers in Pharmacology, 2019)
